Test results taken from patent publication US8927507B2, “Selective glycosidase inhibitors and uses thereof” (priority 2011, dated 2015).
pEC50, pKi: −log10 of the molar value.

Key:
human O-GlcNAcase = human O-GlcNAcase (Homo sapiens (Human), UniProt O60502); assay: Assay for determination of Ki values for inhibition of O-GlcNAcase activity (fluorescence-based hOGA); format: biochemical; settings: purified human O-GlcNAcase 0.7 nM, 4-Methylumbelliferyl N-acetyl-β-D-glucosaminide substrate, pH 7.0, Cheng-Prusoff
Protocol: Experimental Procedure for Kinetic Analyses: Enzymatic reactions were carried out in a reaction containing 50 mM NaH2PO4, 100 mM NaCl and 0.1% BSA (pH 7.0) using 2 mM 4-Methylumbelliferyl N-acetyl-β-D-glucosaminide dihydrate (Sigma M2133) dissolved in ddH2O, as a substrate. The amount of purified human O-GlcNAcase enzyme used in the reaction was 0.7 nM. Test compound of varying concentrations was added to the enzyme prior to initiation of the reaction. The reaction was performed at room temperature in a 96-well plate and was initiated with the addition of substrate. The production of fluorescent product was measured every 60 sec for 45 min with a Tecan Infinite M200 plate-reader with excitation at 355 nm and emission detected at […], with 4-Methylumbelliferone (Sigma M1381) used to produce a standard curve. The slope of product production was determined for each concentration of compound tested and plotted, using standard curve fitting algorithms for sigmoidal dose response curves. The values for a four parameter logistic curve fit of the data were determined.
K1 values were determined using the Cheng-Prusoff equation; the Km of O-GlcNAcase for substrate was 0.2 mM.

O-GlcNAcase = O-GlcNAcase (Rattus norvegicus (Rat), UniProt Q8VIJ5); assay: Cell-based ELISA of O-GlcNAcylated protein (RL-2 antibody) in PC-12 cells; settings: rat PC-12 cells, 24 h treatment, O-GlcNAcylated protein detected with RL-2 antibody
From the text: Inhibition of O-GlcNAcase, which removes O-GlcNAc from cellular proteins, results in an increase in the level of O-GlcNAcylated protein in cells. An increase in O-GlcNAcylated protein can be measured by an antibody, such as RL-2, that binds to O-GlcNAcylated protein. The amount of O-GlcNAcylated protein:RL2 antibody interaction can be measured by enzyme linked immunosorbant assay (ELISA) procedures.
A variety of tissue culture cell lines, expressing endogenous levels of O-GlcNAcase, can be utilized; examples include rat PC-12, and human U-87, or SK-N-SH cells. In this assay, rat PC-12 cells were plated in 96-well plates with approximately 10,000 cells/well. […] If desired, the total protein concentration of samples was determined using 20 μl of the sample using the BCA method.
The ELISA portion of the assay was performed in a black Maxisorp 96-well plate that was coated overnight at 4° C. with 100 μL/well of the cell lysate (1:10 dilution of the lysate with PBS containing protease inhibitors, phosphatase inhibitors, and PMSF). […] The detection reaction was incubated for 15 minutes at room temperature and then read with excitation at 530 nm and emission at 590 nm.
The amount of O-GlcNAcylated protein, as detected by the ELISA assay, was plotted for each concentration of test compound using standard curve fitting algorithms for sigmoidal dose response curves. […]

Sequence of human O-GlcNAcase (O60502 whole entry): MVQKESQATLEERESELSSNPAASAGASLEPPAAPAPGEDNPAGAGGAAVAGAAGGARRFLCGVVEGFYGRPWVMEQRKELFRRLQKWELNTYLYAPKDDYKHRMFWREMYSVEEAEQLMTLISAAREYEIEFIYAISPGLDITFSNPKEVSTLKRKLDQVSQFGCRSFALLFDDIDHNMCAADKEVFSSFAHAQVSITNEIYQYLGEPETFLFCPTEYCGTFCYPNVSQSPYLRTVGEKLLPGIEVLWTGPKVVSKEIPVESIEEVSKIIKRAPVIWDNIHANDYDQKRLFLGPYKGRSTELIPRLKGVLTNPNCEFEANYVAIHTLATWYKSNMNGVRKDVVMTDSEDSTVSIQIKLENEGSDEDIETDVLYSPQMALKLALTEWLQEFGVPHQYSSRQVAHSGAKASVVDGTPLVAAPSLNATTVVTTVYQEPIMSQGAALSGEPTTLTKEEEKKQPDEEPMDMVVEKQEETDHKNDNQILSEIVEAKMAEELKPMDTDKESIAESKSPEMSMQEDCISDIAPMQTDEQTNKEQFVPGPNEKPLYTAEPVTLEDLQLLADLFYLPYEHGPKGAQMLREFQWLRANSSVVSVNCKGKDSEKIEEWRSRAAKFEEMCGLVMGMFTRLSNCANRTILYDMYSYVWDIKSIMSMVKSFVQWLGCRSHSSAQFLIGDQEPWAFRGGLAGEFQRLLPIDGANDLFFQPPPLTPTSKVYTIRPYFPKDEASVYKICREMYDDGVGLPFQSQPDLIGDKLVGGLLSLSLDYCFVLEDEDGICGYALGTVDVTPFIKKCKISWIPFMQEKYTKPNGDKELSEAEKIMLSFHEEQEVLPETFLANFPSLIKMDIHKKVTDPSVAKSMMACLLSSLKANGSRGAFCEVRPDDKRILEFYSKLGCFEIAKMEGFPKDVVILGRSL
Sequence of O-GlcNAcase (Q8VIJ5 whole entry): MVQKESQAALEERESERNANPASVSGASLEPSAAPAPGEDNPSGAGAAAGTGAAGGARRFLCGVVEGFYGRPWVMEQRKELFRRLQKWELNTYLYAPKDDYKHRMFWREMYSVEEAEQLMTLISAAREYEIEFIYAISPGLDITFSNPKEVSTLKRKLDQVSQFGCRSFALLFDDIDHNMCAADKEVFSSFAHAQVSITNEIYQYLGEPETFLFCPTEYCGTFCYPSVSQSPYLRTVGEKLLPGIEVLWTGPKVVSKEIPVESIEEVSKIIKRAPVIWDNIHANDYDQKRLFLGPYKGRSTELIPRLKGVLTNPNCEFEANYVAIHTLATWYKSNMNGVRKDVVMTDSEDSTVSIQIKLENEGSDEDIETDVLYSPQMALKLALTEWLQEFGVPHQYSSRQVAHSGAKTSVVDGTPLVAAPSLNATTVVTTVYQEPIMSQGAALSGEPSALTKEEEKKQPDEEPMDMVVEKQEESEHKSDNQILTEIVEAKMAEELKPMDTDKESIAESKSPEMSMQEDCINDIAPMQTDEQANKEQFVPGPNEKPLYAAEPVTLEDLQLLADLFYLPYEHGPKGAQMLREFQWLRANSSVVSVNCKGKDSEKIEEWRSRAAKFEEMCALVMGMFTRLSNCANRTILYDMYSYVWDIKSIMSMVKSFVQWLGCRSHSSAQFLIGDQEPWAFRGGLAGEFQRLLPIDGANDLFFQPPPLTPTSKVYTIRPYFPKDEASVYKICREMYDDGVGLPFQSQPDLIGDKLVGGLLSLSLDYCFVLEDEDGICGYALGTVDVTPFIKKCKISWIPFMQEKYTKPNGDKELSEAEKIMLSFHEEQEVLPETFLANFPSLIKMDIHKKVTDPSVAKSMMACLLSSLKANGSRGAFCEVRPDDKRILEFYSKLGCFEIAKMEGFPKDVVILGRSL

| pKi (human O-GlcNAcase) | pEC50 (O-GlcNAcase) | SMILES |
| --- | --- | --- |
| 8.55 | 6.82 | C=CCN(C)C1=N[C@@H]2[C@@H](O)[C@H](O)[C@@H](CO)O[C@@H]2S1 [Example 16, (3aR,5R,6S,7R,7aR)-2-(allyl(methyl)amino)-5-(hydroxymethyl)-5,6,7,7a-tetrahydro-3aH-pyrano[3,2-d]thiazole-6,7-diol] |
| 7.13 | – | CCC(=O)NC1=N[C@@H]2[C@@H](O)[C@H](O)[C@@H](CO)O[C@@H]2S1 [Example 22, N-((3aR,5R,6S,7R,7aR)-6,7-dihydroxy-5-(hydroxymethyl)-5,6,7,7a-tetrahydro-3aH-pyrano[3,2-d]thiazol-2-yl)propionamide] |
| 7.96 | – | CON(C)C1=N[C@@H]2[C@@H](O)[C@H](O)[C@@H](CO)O[C@@H]2S1 [Example 18, (3aR,5R,6S,7R,7aR)-5-(hydroxymethyl)-2-(methoxy(methyl)amino)-5,6,7,7a-tetrahydro-3aH-pyrano[3,2-d]thiazole-6,7-diol] |
| 7.82 | 6.71 | CCCN(C)C1=N[C@@H]2[C@@H](O)[C@H](O)[C@@H](CO)O[C@@H]2S1 [Example 15, (3aR,5R,6S,7R,7aR)-5-(hydroxymethyl)-2-(methyl(propyl)amino)-5,6,7,7a-tetrahydro-3aH-pyrano[3,2-d]thiazole-6,7-diol] |

Continued, molecule first:

| SMILES | pKi (human O-GlcNAcase) | pEC50 (O-GlcNAcase) |
| --- | --- | --- |
| OC[C@H]1O[C@@H]2SC(NCCCF)=N[C@@H]2[C@@H](O)[C@@H]1O [Example 2, (3aR,5R,6S,7R,7aR)-2-((3-fluoropropyl)amino)-5-(hydroxymethyl)-5,6,7,7a-tetrahydro-3aH-pyrano[3,2-d]thiazole-6,7-diol] | 7.82 | – |
| OC[C@H]1O[C@@H]2SC(NCC3CC3)=N[C@@H]2[C@@H](O)[C@@H]1O [Example 11, (3aR,5R,6S,7R,7aR)-2-((cyclopropylmethyl)amino)-5-(hydroxymethyl)-5,6,7,7a-tetrahydro-3aH-pyrano[3,2-d]thiazole-6,7-diol] | 7.82 | – |
| OC[C@H]1O[C@@H]2SC(NCCC3CC3)=N[C@@H]2[C@@H](O)[C@@H]1O [Example 3, (3aR,5R,6S,7R,7aR)-2-(2-Cyclopropylethylamino)-5-(hydroxymethyl)-5,6,7,7a-tetrahydro-3aH-pyrano[3,2-d]thiazole-6,7-diol] | 8.36 | – |
| CCNC(=O)NC1=N[C@@H]2[C@@H](O)[C@H](O)[C@@H](CO)O[C@@H]2S1 [Example 29, 1-((3aR,5R,6S,7R,7aR)-6,7-dihydroxy-5-(hydroxymethyl)-5,6,7,7a-tetrahydro-3aH-pyrano[3,2-d]thiazol-2-yl)-3-ethylurea] | 7.66 | – |
